Four molecules from ChEMBL document CHEMBL5380795, “Design, Synthesis, and Bioactivity Investigation of Cyclic Lipopeptide Antibiotics Containing Eight to Nine Amino Acids” (J Med Chem, 2023) can be followed below.

Values after ≈ are worked out from the molar mass of the structure shown.

The test system of data set [1] is Acinetobacter baumannii. Nature of the data set: Antibacterial activity against oxacillinase-27 producing Acinetobacter baumannii NCTC 13304 assessed as inhibition of bacterial growth incubated for 18 to 24 hrs by broth microdilution method. In kind it is functional. The following applies: time 18-24 hrs. Background: Broth dilution looks for growth in wells or tubes with falling amounts of substance.

The test system of data set [2] is Staphylococcus epidermidis. Nature of the data set: Antibacterial activity against methicillin resistant Staphylococcus epidermidis clinical isolate 19-5 assessed as inhibition of bacterial growth incubated for 18 to 24 hrs by broth microdilution method. The following applies: time 18-24 hrs. In kind it is functional.
Data set [3] relates to Klebsiella pneumoniae. Nature of the data set: Antibacterial activity against carbapenem resistant Klebsiella pneumoniae clinical isolate 19-15 assessed as inhibition of bacterial growth incubated for 18 to 24 hrs by broth microdilution method. In kind it is functional. The settings on record: time 18-24 hrs.
Data set [4] relates to Pseudomonas aeruginosa. As to the kind of experiment: Antibacterial activity against carbapenem resistant Pseudomonas aeruginosa clinical isolate 17-1 assessed as inhibition of bacterial growth incubated for 18 to 24 hrs by broth microdilution method. In kind it is functional. The settings on record: time 18-24 hrs.
Data set [5] concerns Escherichia coli. Nature of the data set: Antibacterial activity against KPC producing Escherichia coli ATCC BAA-2340 assessed as inhibition of bacterial growth incubated for 18 to 24 hrs by broth microdilution method. The format is functional. The following applies: time 18-24 hrs.
The test system of data set [6] is Staphylococcus aureus. Nature of the data set: Antibacterial activity against Staphylococcus aureus ATCC 29213 assessed as inhibition of bacterial growth incubated for 18 to 24 hrs by broth microdilution method. The format is functional. The following applies: time 18-24 hrs.
A short description of data set [7]: Selectivity index, ratio of IC50 for cytotoxicity against human HK-2 cells to MIC for antibacterial activity against Escherichia coli ATCC BAA-2523. In kind it is toxicity, cell-based.
Data set [8] can be described thus: Cytotoxicity against human HK-2 cells assessed as inhibition of cell growth incubated for 72 hrs by CCK-8 assay. In kind it is toxicity, cell-based. (In general: Tetrazolium assays rely on reduction of a dye to a coloured formazan, in cell work by metabolically active cells.)
The subject of data set [9] is Acinetobacter baumannii. As to the kind of experiment: Antibacterial activity against carbapenem resistant Acinetobacter baumannii clinical isolate 19-8 assessed as inhibition of bacterial growth incubated for 18 to 24 hrs by broth microdilution method. The format is functional. The settings on record: time 18-24 hrs.
The subject of data set [10] is Klebsiella pneumoniae. Nature of the data set: Antibacterial activity against carbapenem resistant Klebsiella pneumoniae clinical isolate 19-17 assessed as inhibition of bacterial growth incubated for 18 to 24 hrs by broth microdilution method. In kind it is functional. The settings on record: time 18-24 hrs.
Data set [11] has as its system Staphylococcus epidermidis. As to the kind of experiment: Antibacterial activity against methicillin resistant Staphylococcus epidermidis clinical isolate 19-6 assessed as inhibition of bacterial growth incubated for 18 to 24 hrs by broth microdilution method. The format is functional. The following applies: time 18-24 hrs.
Data set [12] concerns Escherichia coli. Nature of the data set: Antibacterial activity against Escherichia coli ATCC BAA-2523 assessed as inhibition of bacterial growth incubated for 18 to 24 hrs by broth microdilution method. The following applies: time 18-24 hrs. In kind it is functional.
Data set [13] relates to Staphylococcus aureus. As to the kind of experiment: Antibacterial activity against methicillin resistant Staphylococcus aureus ATCC 33591 assessed as inhibition of bacterial growth incubated for 18 to 24 hrs by broth microdilution method. The format is functional. The following applies: time 18-24 hrs.
Data set [14] deals with Pseudomonas aeruginosa. Nature of the data set: Antibacterial activity against Pseudomonas aeruginosa clinical isolate 19-1 assessed as inhibition of bacterial growth incubated for 18 to 24 hrs by broth microdilution method. The format is functional. The following applies: time 18-24 hrs.
Data set [15] deals with Pseudomonas aeruginosa. As to the kind of experiment: Antibacterial activity against Pseudomonas aeruginosa ATCC 27853 assessed as inhibition of bacterial growth incubated for 18 to 24 hrs by broth microdilution method. In kind it is functional. The settings on record: time 18-24 hrs.
For data set [16], the system named is Escherichia coli. Nature of the data set: Antibacterial activity against Escherichia coli NCTC 13353 assessed as inhibition of bacterial growth incubated for 18 to 24 hrs by broth microdilution method. The format is functional. The following applies: time 18-24 hrs.
For data set [17], the system named is Pseudomonas aeruginosa. As to the kind of experiment: Antibacterial activity against carbapenem resistant Pseudomonas aeruginosa clinical isolate 19-3 assessed as inhibition of bacterial growth incubated for 18 to 24 hrs by broth microdilution method. The format is functional. The settings on record: time 18-24 hrs.
Data set [18] relates to Escherichia coli. As to the kind of experiment: Antibacterial activity against Escherichia coli clinical isolate 19-2 assessed as inhibition of bacterial growth incubated for 18 to 24 hrs by broth microdilution method. The format is functional. The settings on record: time 18-24 hrs.
For data set [19], the system named is Klebsiella pneumoniae. Nature of the data set: Antibacterial activity against KPC producing Klebsiella pneumoniae ATCC BAA-1705 assessed as inhibition of bacterial growth incubated for 18 to 24 hrs by broth microdilution method. The format is functional. The following applies: time 18-24 hrs.

For orientation: MIC means the lowest concentration that inhibits growth of the organism. As a reminder, the IC50 is the concentration that inhibits the measured activity by half. Regarding `CCCCCCCCCC(=O)N[C@H](CCN)C(=O)N[C@H]1CCNC(=O)[C@H]([C@@H](C)O)NC(=O)[C@H](CCN)NC(=O)[C@H](CCN)NC(=O)[C@H](CC(C)C)NC(=O)[C@@H](Cc2ccccc2Cl)NC(=O)[C@H](CCN)NC1=O`, the MIC was 32 µg/mL (≈ 30.5 µM) in data set [1]; 4 µg/mL (≈ 3.81 µM) in data set [2]; 4 µg/mL (≈ 3.81 µM) in data set [3]; 64 µg/mL (≈ 60.9 µM) in [4]; 2 µg/mL (≈ 1.9 µM) in data set [5]; 64 µg/mL (≈ 60.9 µM) in [6]. The MIC in data set [9] is 64 µg/mL (≈ 60.9 µM); in [10], 4 µg/mL (≈ 3.81 µM); in [11], 2 µg/mL (≈ 1.9 µM); in data set [12] it was 2 µg/mL (≈ 1.9 µM); in data set [13] it was more than 64 µg/mL; in data set [14], 2 µg/mL (≈ 1.9 µM). Further, the minimum inhibitory concentration (MIC) in data set [15] is 32 µg/mL (≈ 30.5 µM); in data set [16] it was 8 µg/mL (≈ 7.61 µM); in [17], 2 µg/mL (≈ 1.9 µM); in data set [18] it was 2 µg/mL (≈ 1.9 µM); in data set [19] it was 2 µg/mL (≈ 1.9 µM). Besides, the selectivity ratio in data set [7] was determined as 27.3. Also, in data set [8], the IC50 at 72 h turned out to be 54.6 µg/mL (≈ 52 µM).
For the molecule `CCCCCCCCC(=O)N[C@H](CCN)C(=O)N[C@H]1CCNC(=O)[C@H](CC(C)C)NC(=O)[C@H](CCN)NC(=O)[C@H](CCN)NC(=O)[C@H](CC(C)C)NC(=O)[C@@H](CC(C)C)NC(=O)[C@H](CCN)NC1=O`, the minimal inhibitory concentration (MIC) is 8 µg/mL (≈ 8.16 µM) in data set [1]; 4 µg/mL (≈ 4.08 µM) in data set [2]; 16 µg/mL (≈ 16.3 µM) in data set [3]; 2 µg/mL (≈ 2.04 µM) in [4]; 2 µg/mL (≈ 2.04 µM) in [5]; more than 64 µg/mL in [6]. The minimum inhibitory concentration (MIC) is 8 µg/mL (≈ 8.16 µM) in data set [9]; 16 µg/mL (≈ 16.3 µM) in data set [10]; 16 µg/mL (≈ 16.3 µM) in data set [11]; 16 µg/mL (≈ 16.3 µM) in [12]; more than 64 µg/mL in [13]; 4 µg/mL (≈ 4.08 µM) in data set [14]. In addition, the minimal inhibitory concentration (MIC) in data set [15] worked out at 1 µg/mL (≈ 1.02 µM); in data set [16], 16 µg/mL (≈ 16.3 µM); in data set [17] it was 4 µg/mL (≈ 4.08 µM); in data set [18], 32 µg/mL (≈ 32.6 µM); in data set [19] it was 2 µg/mL (≈ 2.04 µM). Moreover, in data set [7], the selectivity ratio came to 4.8. In data set [8], the half-maximal inhibitory concentration (IC50) at 72 h worked out at 77.4 µg/mL (≈ 79 µM).
Take `CCCCCCCCCC(=O)N[C@H](CCN)C(=O)N[C@H]1CCNC(=O)[C@H]([C@@H](C)O)NC(=O)[C@H](CCN)NC(=O)[C@H](CCN)NC(=O)[C@H](CC(C)C)NC(=O)[C@@H](CC(C)C)NC(=O)[C@H](CCCCN)NC1=O`: the minimum inhibitory concentration (MIC) was more than 64 µg/mL in data set [1]; 8 µg/mL (≈ 7.92 µM) in [2]; more than 64 µg/mL in [3]; more than 64 µg/mL in data set [4]; more than 64 µg/mL in [5]; more than 64 µg/mL in data set [6]. For the same molecule, the MIC in [9] is more than 64 µg/mL; in [10] it was more than 64 µg/mL; in [11], 32 µg/mL (≈ 31.7 µM); in data set [12], more than 64 µg/mL; in data set [13], more than 64 µg/mL; in [14], more than 64 µg/mL. Besides, the MIC in [15], in [16], in data set [17], in data set [18] and in [19] was more than 64 µg/mL in each case. Also, the selectivity ratio in data set [7] is less than 3.1. For the same molecule, the half-maximal inhibitory concentration (IC50) at 72 h in data set [8] came out at 196 µg/mL (≈ 193 µM).
Consider `CCCCCCCCCC(=O)N[C@H](CCN)C(=O)N[C@H]1CCNC(=O)[C@H]([C@@H](C)O)NC(=O)[C@H](CCN)NC(=O)[C@H](CCN)NC(=O)[C@H](CC(C)C)NC(=O)[C@@H](Cc2ccc(C)cc2)NC(=O)[C@H](CCN)NC1=O`, for which the MIC in data set [1] came to 16 µg/mL (≈ 15.5 µM); in [2], 2 µg/mL (≈ 1.94 µM); in data set [3], 4 µg/mL (≈ 3.88 µM); in [4] it was 32 µg/mL (≈ 31.1 µM); in [5], 1 µg/mL (≈ 0.971 µM); in [6], 32 µg/mL (≈ 31.1 µM). The minimum inhibitory concentration (MIC) in [9] is 32 µg/mL (≈ 31.1 µM); in [10], 4 µg/mL (≈ 3.88 µM); in data set [11], 2 µg/mL (≈ 1.94 µM); in [12] it was 1 µg/mL (≈ 0.971 µM); in data set [13], more than 64 µg/mL; in data set [14], 1 µg/mL (≈ 0.971 µM). The minimal inhibitory concentration (MIC) in [15] amounted to 32 µg/mL (≈ 31.1 µM); in [16], 8 µg/mL (≈ 7.76 µM); in data set [17], 1 µg/mL (≈ 0.971 µM); in data set [18] it was 2 µg/mL (≈ 1.94 µM); in data set [19], 2 µg/mL (≈ 1.94 µM). Besides, the selectivity ratio in [7] turned out to be 71.6. For the same molecule, the IC50 at 72 h in data set [8] worked out at 71.6 µg/mL (≈ 69.5 µM).
